Our source for the GI50 values is patent publication US12558428B2, “Heterobifunctional compounds and their use in treating disease” (Halda Therapeutics OpCo, Inc., priority 2024, dated 2026).

Like-named read-outs stand apart in the source and are kept apart here.

Type in all cases: cell-based
In test [1] the test system is T-Rex 293 cells having increased expression of estrogen receptor alpha protein. Put plainly: Cellular growth inhibition assay, T-Rex 293 cells, (+) doxycycline. Particulars: T-REx-293, 72 h, 72 hours. How it is done:
(§1) Exemplary compounds were tested for the ability to inhibit the proliferation of the following types of cells: (i) a T-Rex 293 cell line having increased expression of estrogen receptor alpha protein from exposure to doxycycline and (ii) a T-Rex 293 cell line lacking increased expression of estrogen receptor alpha protein.
(§2) The following types of cells were prepared for this experiment: (i) a T-Rex 293 cell line having increased expression of estrogen receptor alpha protein from exposure to doxycycline and (ii) a T-Rex 293 cell line lacking increased expression of estrogen receptor alpha protein. The ability of the test compounds to inhibit proliferation of the foregoing cell types was evaluated according to the procedures set forth below.
(§3) The doxycycline-inducible estrogen receptor alpha protein expressing cell line was established using the following protocol: T-Rex 293 cells were purchased from Invitrogen (Cat #R71007) and transfected using Lipofectamine 2000 with the wild-type estrogen receptor alpha protein sequence cloned into the pcDNA4/TO vector. Transfected cells were selected using 400 μg/mL Zeocin (Invitrogen Cat #R25001). Following selection, single clones were raised and maintained in Dulbecco's Modified Eagle Medium (DMEM) supplemented with 10% w/w Tetracycline-free fetal bovine serum (FBS) and 250 μg/mL Zeocin. Clones were analyzed for expression of estrogen receptor alpha protein in the presence and absence of 3 ng/mL doxycycline (Sigma Cat #D9891), and a single doxycycline-inducible clone (hereinafter “SC”) was selected for use in downstream assays.
(§4) The SC cells were seeded on poly-D-lysine coated, black clear-bottom 384-well plates at 2500/well, in 25 μL Phenol Red Free Dulbecco's Modified Eagle Medium (DMEM) supplemented with 10% w/w charcoal-dextran treated fetal bovine serum (FBS) and 1% w/w pen-strep, with or without 3 ng/mL doxycycline. Pen-Strep is a commercially available mixture of penicillin G and streptomycin, which is used in mammalian cell culture media to prevent bacterial contamination. Phenol Red Free Dulbecco's Modified Eagle Medium (DMEM) supplemented with 10% w/w charcoal-dextran treated fetal bovine serum (FBS) and 1% w/w pen-strep, with or without 3 ng/mL doxycycline is herein referred to as Treatment Medium. Following seeding of cells in the plates, the plates were spun at 300×g for 30 seconds, then equilibrated to room temperature for 30 minutes, and then deposited in a humidified tissue culture incubator maintained at 37° C. with 5% CO2.
(§5) At 24 hours after seeding of the cells, dilutions of test compound were prepared in DMSO and dissolved in Treatment Medium, to achieve a final DMSO concentration of 0.5% w/w, thereby providing the Test Compound Solution. A 25 μL aliquot of the Test Compound Solution was added to cells in the well plates. An equal volume of a solution containing DMSO and Treatment Medium was used as a negative control. Following treatment of cells with Test Compound Solution or said equal volume of a solution containing DMSO and Treatment Medium, the plates were spun at 300×g for 30 seconds, and then left in an incubator for 72 hours.
(§6) At the end of the treatment duration, cell viability was quantified with CellTiter-Glo 2.0 reagent (Promega Cat #G9243). For this purpose, plates were equilibrated to room temperature for 30 minutes, and then 25 μL of CellTiter-Glo 2.0 reagent was added to cells in the plate wells. Plates were then agitated on a shaker for two minutes at 500 rpm and subsequently incubated at room temperature for 10 minutes. Following incubation, the plates were spun at 3000×g for 30 seconds, then sealed with an optical adhesive cover, and luminescence readings were measured with an EnVision Plate Reader (Perkin Elmer).
(§7) Data was normalized using zero luminescence for baseline. […]

Test [2] relates to MCF7 cells (ATCC #HTB-22). Put plainly: Cellular growth inhibition assay, MCF7 cells purchased from ATCC. The settings on record: Homo sapiens, MCF7, 144 h, Table 8-A; MCF7 cells purchased from ATCC; six days; CellTiter-Glo; read-out: GI50. How it is done: Exemplary compounds were tested for the ability to inhibit the proliferation of MCF7 cells.
MCF7 cells (ATCC #HTB-22 or ECACC #86012803) were cultured in RPMI 1640 medium supplemented with 10% heat-inactivated fetal bovine serum, 1% pen-strep, and 0.2 U/ml insulin. Cells were seeded in 25 μL of RPMI 1640 medium supplemented with 10% heat-inactivated fetal bovine serum, 1% pen-strep, 0.2 U/ml insulin in poly-D-lysine treated, black clear-bottom 384-well plates at 225 cells/well for MCF7 cells purchased from ECACC or 1,500 cells/well for MCF7 cells purchased from ATCC. Following seeding, plates were spun at 300×g for 30 seconds and cultured at 37° C. with 5% CO2 in a humidified tissue culture incubator.
At 24 hours after seeding, compounds were titrated in 100% DMSO and diluted in RPMI 1640 medium supplemented with 10% heat-inactivate fetal bovine serum, 1% pen-strep, and 0.2 U/ml insulin. A 25 μL aliquot of the compound/media mixture was added to cells, bringing the total volume in each well to 50 μL. An equal volume of DMSO without compound was used as a negative control. After treatment, plates were spun at 300×g for 30 seconds, then cultured at 37° C. with 5% CO2 for six days in a humidified tissue culture incubator.
On Day 6 of treatment, cell viability was quantified with CellTiter-Glo 2.0 reagent (Promega). Plates were equilibrated to room temperature for 30 minutes, then 25 μL of CellTiter-Glo 2.0 reagent was added to cells, bringing the total volume in each well to 75 μL. After reagent was added, plates were mixed on a shaker for two minutes at 500 rpm and then incubated at room temperature for 10 minutes. Following incubation, plates were spun at 3,000×g for 30 seconds, sealed with an optical adhesive cover, and luminescence readings were measured with an EnVision Plate Reader.
Data was normalized to 0 luminescence for baseline. A four-parameter, non-linear regression curve fit was applied to dose-response data in GraphPad Prism data analysis software to determine the half maximal growth inhibitory concentration (GI50) for each compound.

The test system of test [3] is T-Rex 293 cells lacking increased expression of estrogen receptor alpha protein. Put plainly: Cellular growth inhibition assay, T-Rex 293 cells, (−) doxycycline. The settings on record: T-REx-293, 72 h, 72 hours. As for the experimental part: as §1, §2, §3, §4, §5, §6, §7
The mark [4] stands for this setting: T-Rex 293 cells with doxycycline-induced ERα expression, CellTiter-Glo 2.0, read-out: (+) Dox TRex ERa (GI50).
[5] abbreviates: T-Rex 293 cells without doxycycline, CellTiter-Glo 2.0, read-out: (−) Dox TRex ERa (GI50).
Where [6] appears, read: Table 7-A, T-Rex 293 cells with doxycycline (increased ERα expression), CellTiter-Glo, read-out: (+) Dox GI50.
Setting [7] is: Table 7-A, T-Rex 293 cells without doxycycline (lacking increased ERα expression), CellTiter-Glo, read-out: (−) Dox GI50.

The term GI50 denotes the concentration that inhibits growth by half. As for `Cc1sc2c(c1C)C(c1ccc(OC3CC4(CCN(c5ccc(C(=O)c6c(-c7ccc(O)cc7)sc7cc(O)ccc67)cc5)CC4)C3)cc1)=N[C@@H](Cc1ncco1)c1nnc(C)n1-2` (single isomer, unassigned) [I-26, (6-hydroxy-2-(4-hydroxyphenyl)benzo[b]thiophen-3-yl)(4-(2-(4-(2,3,9-trimethyl-6-(oxazol-2-ylmethyl)-6H-thieno[3,2-f][1,2,4]triazolo[4,3-a][1,4]diazepin-4-yl)phenoxy)-7-azaspiro[3.5]nonan-7-yl)phenyl)methanone], the GI50 in test [1] (setting [4]) is less than 50 nM; in test [2] it was less than 50 nM; in test [3] (setting [5]), 50 to 500 nM.

Consider `Cc1sc2c(c1C)C(c1ccc(N3CCN(CC4CCN(c5ccc([C@H]6c7ccc(O)cc7CC[C@H]6c6ccccc6)cc5)CC4)CC3)cc1)=N[C@@H](C)c1nnc(C)n1-2` (single isomer, unassigned) [I-37a], for which the GI50 in test [1] (setting [6]) was in the range of 50 to 500 nM; in test [2], 50 to 500 nM; in test [3] (setting [7]) it was 500 to 2500 nM.

In the case of `Cc1sc2c(c1C)C(c1ccc(N3CCN(CC4CCN(c5ccc([C@@H]6c7ccc(O)cc7CC[C@@H]6c6ccccc6)cc5)CC4)CC3)cc1)=N[C@@H](C)c1nnc(C)n1-2` (single isomer, unassigned) [I-37b], the GI50 in test [1] (setting [6]), in test [2] and in test [3] (setting [7]) was 500 to 2500 nM in each case.

In the case of `CC1=C(c2c(F)cc(OCCOCCOc3ccc(C4=N[C@@H](C)c5nnc(C)n5-c5sc(C)c(C)c54)cc3)cc2F)C(c2ccccc2)Oc2ccc(O)cc21` (single isomer, unassigned) [I-39], the GI50 lay in the range of 50 to 500 nM in test [1] (setting [4]), 50 to 500 nM in test [2] and 500 to 2500 nM in test [3] (setting [5]).

Turning to `Cc1sc2c(c1C)C(c1ccc(N3CCC(O)(CN4CCC(c5cc(F)c([C@H]6c7ccc(O)cc7CC[C@H]6c6ccc(F)cc6)c(F)c5)CC4)CC3)cc1)=N[C@@H](C)c1nnc(C)n1-2` (single isomer, unassigned) [III-244], the GI50 is greater than 2500 nM in test [1] (setting [6]), 50 to 500 nM in test [2] and greater than 2500 nM in test [3] (setting [7]).

`Cc1sc2c(c1C)C(c1ccc(N3CCC(O)(CN4CCC(c5cc(F)c([C@@H]6c7ccc(O)cc7CC[C@@H]6c6ccc(F)cc6)c(F)c5)CC4)CC3)cc1)=N[C@@H](C)c1nnc(C)n1-2` (single isomer, unassigned) [III-245]: the GI50 in test [1] (setting [6]) was less than 50 nM; in test [2], less than 50 nM; in test [3] (setting [7]), 500 to 2500 nM.

As to `COc1cc(N2CCN(CC3(O)CCN(c4ccc(C5=N[C@@H](C)c6nnc(C)n6-c6sc(C)c(C)c65)cc4)CC3)CC2)ccc1[C@H]1c2ccc(O)cc2CC[C@H]1c1ccc(F)cc1` (single isomer, unassigned) [III-275], the GI50 in test [1] (setting [6]), in test [2] and in test [3] (setting [7]) was 50 to 500 nM throughout.

On to `COc1cc(N2CCN(CC3(O)CCN(c4ccc(C5=N[C@@H](C)c6nnc(C)n6-c6sc(C)c(C)c65)cc4)CC3)CC2)ccc1[C@@H]1c2ccc(O)cc2CC[C@@H]1c1ccc(F)cc1` (single isomer, unassigned) [III-276], for which the GI50 in test [1] (setting [6]) was less than 50 nM; in test [2], less than 50 nM; in test [3] (setting [7]), 500 to 2500 nM.

In the case of `COc1cc(N2CCN(CC3(O)CCN(c4ccc(C5=N[C@@H](C)c6nnc(C)n6-c6sc(C)c(C)c65)cc4)CC3)CC2)ccc1[C@@H]1c2ccc(O)cc2CC[C@@H]1c1ccccc1F` (single isomer, unassigned) [III-307], the GI50 was less than 50 nM in test [1] (setting [6]), less than 50 nM in test [2] and 500 to 2500 nM in test [3] (setting [7]).

As to `COc1cc(N2CCN(CC3(O)CCN(c4ccc(C5=N[C@@H](C)c6nnc(C)n6-c6sc(C)c(C)c65)cc4)CC3)CC2)ccc1[C@H]1c2ccc(O)cc2CC[C@H]1c1ccccc1F` (single isomer, unassigned) [III-308], the GI50 in test [1] (setting [6]), in test [2] and in test [3] (setting [7]) was 50 to 500 nM throughout.

With `CCN(CCOCCOCCOCCOCCOCCOCCCCCCCCc1cc(Cl)cc(NC(=O)NCc2ccc3c(c2)CN(C2CCC(=O)NC2=O)C3=O)c1)CCOc1ccc(C(=O)c2c(-c3ccc(O)cc3)sc3cc(O)ccc23)cc1` (centres unmarked) [II-1], in test [2], the GI50 was less than 50 nM.

For the compound `CCN(CCCCCCCCc1cc(Cl)cc(NC(=O)NCc2ccc3c(c2)CN(C2CCC(=O)NC2=O)C3=O)c1)CCOc1ccc(C(=O)c2c(-c3ccc(O)cc3)sc3cc(O)ccc23)cc1` (centres unmarked) [II-3], in test [2], the GI50 is less than 50 nM.

In the case of `COc1cc(N2CCN(CC3CCN(c4ccc(C5=N[C@@H](C)c6nnc(C)n6-c6sc(C)c(C)c65)c(F)c4)CC3)CC2)ccc1[C@@H]1c2ccc(O)cc2CC[C@@H]1c1ccc(C)cc1` [III-332], the results for the GI50 in test [1] (setting [6]) and in test [3] (setting [7]) were less than 50 nM and 50 to 500 nM, respectively.

For `Cc1sc2c(c1C)C(c1ccc(N3CCC(O)(CN4CCC(c5cc(F)c([C@H]6c7ccc(O)cc7CC[C@H]6c6ccc(F)cc6)c(F)c5)CC4)CC3)cc1F)=N[C@@H](C)c1nnc(C)n1-2` [III-337, 4-((4-(3,5-difluoro-4-((1R,2R)-2-(4-fluorophenyl)-6-hydroxy-1,2,3,4-tetrahydronaphthalen-1-yl)phenyl)piperidin-1-yl)methyl)-1-(3-fluoro-4-((6S)-2,3,6,9-tetramethyl-6H-thieno[3,2-f][1,2,4]triazolo[4,3-a][1,4]diazepin-4-yl)phenyl)piperidin-4-ol], the GI50 in test [1] (setting [6]) lay in the range of 50 to 500 nM; in test [3] (setting [7]), 500 to 2500 nM.

Regarding `Cc1sc2c(c1C)C(c1ccc(N3CCC(O)(CN4CCC(c5cc(F)c([C@@H]6c7ccc(O)cc7CC[C@@H]6c6ccc(F)cc6)c(F)c5)CC4)CC3)cc1F)=N[C@@H](C)c1nnc(C)n1-2` [III-338, 4-((4-(3,5-difluoro-4-((1S,2S)-2-(4-fluorophenyl)-6-hydroxy-1,2,3,4-tetrahydronaphthalen-1-yl)phenyl)piperidin-1-yl)methyl)-1-(3-fluoro-4-((6S)-2,3,6,9-tetramethyl-6H-thieno[3,2-f][1,2,4]triazolo[4,3-a][1,4]diazepin-4-yl)phenyl)piperidin-4-ol], the values for the concentration for 50% growth inhibition (GI50) in test [1] (setting [6]) and in test [3] (setting [7]) were less than 50 nM and 500 to 2500 nM, respectively.
